How the values were obtained:
[1] = molecular target: T1, SCD1 (Homo sapiens, UniProt O00767); assay: Growth inhibition of humanized yeast strain expressing SCD1 as sole desaturase; assay type: cell-based
T1 construct: host or cells: S. cerevisiae ole1Δ strain (W303 pdr1Δ pdr3Δ background), plasmid pRS316 with TDH3 promoter and CYC1 terminator
T1 sequence (O00767 1-359): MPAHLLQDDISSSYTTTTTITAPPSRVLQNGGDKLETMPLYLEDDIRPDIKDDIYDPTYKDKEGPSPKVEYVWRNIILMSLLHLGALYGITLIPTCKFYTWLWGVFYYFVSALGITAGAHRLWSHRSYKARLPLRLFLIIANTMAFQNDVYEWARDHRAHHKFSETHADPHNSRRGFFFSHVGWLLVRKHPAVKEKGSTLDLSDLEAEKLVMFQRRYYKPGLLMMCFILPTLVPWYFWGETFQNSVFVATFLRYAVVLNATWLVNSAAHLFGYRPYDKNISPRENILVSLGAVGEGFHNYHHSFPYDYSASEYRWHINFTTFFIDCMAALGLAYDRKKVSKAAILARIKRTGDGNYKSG
Outline: (§1)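 Yeast ole1Δ strain (W303 pdr1Δ pdr3Δ background) carrying plasmid-borne Ole1, SCD1 or SCD5 as sole desaturase was grown in uracil-lacking media, pre-cultured in raffinose for 6 h, then seeded in galactose medium with compound in DMSO. Growth was read as OD600 after 30° C. incubation: 24 h for Ole1, 40 h for SCD1/SCD5.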

[2] = molecular target: T2, SCD5 (Homo sapiens, UniProt Q86SK9); assay: Growth inhibition of humanized yeast strain expressing SCD5 as sole desaturase; assay type: cell-based
T2 construct: host or cells: S. cerevisiae ole1Δ strain (W303 pdr1Δ pdr3Δ background), plasmid pRS316 with TDH3 promoter and CYC1 terminator
T2 sequence (Q86SK9 1-330): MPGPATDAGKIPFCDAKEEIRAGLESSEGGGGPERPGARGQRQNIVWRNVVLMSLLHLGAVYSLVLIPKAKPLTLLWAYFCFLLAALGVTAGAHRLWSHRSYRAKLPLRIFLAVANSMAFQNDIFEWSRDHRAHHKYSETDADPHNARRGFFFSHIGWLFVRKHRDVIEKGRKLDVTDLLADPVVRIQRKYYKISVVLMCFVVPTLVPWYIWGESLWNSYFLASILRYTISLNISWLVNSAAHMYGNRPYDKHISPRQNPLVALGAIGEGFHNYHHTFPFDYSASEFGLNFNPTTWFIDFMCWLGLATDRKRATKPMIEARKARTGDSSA
Outline: as §1

[3] = humanized yeast strain expressing SCD1
[4] = humanized yeast strain expressing SCD5
[5] = growth inhibition of humanized yeast strain expressing human SCD1
[6] = growth inhibition of humanized yeast strain expressing human SCD5

Row | SMILES | IC50 ([1]; humanized yeast strain, 40 h) | IC50 ([2]; humanized yeast strain, 40 h) | other results
1 | CC(C)n1ncc2ccc(-c3noc(C4CCN(C(=O)CNC(=O)c5cccc(C#N)c5)CC4(F)F)n3)cc21 (centres unmarked) [Compound 523] | – | – | IC50 [1, 3]: > 45 µM; IC50 [2, 4]: > 45 µM
2 | CC1(C)CC1C(=O)N1CCC(c2noc(-c3ccc4cnn(C5COC5)c4c3)n2)CC1 (centres unmarked) [Compound 848] | > 45 µM | 0.01 µM | –
3 | COC(=O)N1CCC(c2noc(-c3ccc4ccn(C5COC5)c4c3)n2)CC1 [Compound 1036] | > 45 µM | 0.01 µM | –
4 | CC(C)C(=O)N1CCC(c2noc(-c3cncc(N4CCC(F)(F)C4)c3)n2)CC1 [Compound 1174] | > 45 µM | 10.4 µM | –
5 | Cn1ccc(-c2cc(-c3nc(C4CCN(C(=O)OC(C)(C)C)CC4)no3)ccn2)n1 [Compound 1183] | > 45 µM | > 45 µM | –
6 | CC(C)n1ncc2ccc(-c3nc(C4CCN(C(=O)c5sccc5Cl)CC4)no3)cc21 [Compound 715] | – | – | IC50 [1, 5]: > 45 µM; IC50 [2, 6]: 0.048 µM
7 | Cc1nn(C)c2cc(-c3noc(C4CCN(C(=O)CNC(=O)c5ccc(Cl)cc5)CC4(F)F)n3)ccc12 (centres unmarked) [Compound 554] | – | – | IC50 [1, 3]: 4.08 µM; IC50 [2, 4]: 1.07 µM
8 | Cc1nn(C)c2cc(-c3noc(C4CCN(C(=O)[C@H]5CC(=O)N(c6cccc(C#N)c6)C5)CC4(F)F)n3)ccc12 (some centres unmarked) [Compound 631] | – | – | IC50 [1, 5]: > 45 µM; IC50 [2, 6]: > 45 µM
9 | O=C(N1CCC(c2noc(-c3ccc4cnn(C5COC5)c4c3)n2)CC1)C12CC(C1)C2 [Compound 890] | 22.7 µM | 0.01 µM | –
10 | CC1(OC(=O)N2CCC(c3noc(-c4ccnc([C@@H]5CCOC5)c4)n3)CC2)CC1 [Compound 1137] | > 45 µM | 0.0522 µM | –
11 | CCC(=O)N1CCCN(c2noc(-c3ccc4cnn(C5COC5)c4c3)n2)CC1 [Compound 962] | > 45 µM | 0.01 µM | –
12 | CC(C)n1ncc2ccc(-c3nc(C4CCN(C(=O)C5(O)CC5)CC4)no3)cc21 [Compound 722] | – | – | IC50 [1, 5]: > 45 µM; IC50 [2, 6]: 1.37 µM
13 | Cc1nn(C)c2cc(-c3noc(C4CCN(C(=O)CNC(=O)c5cccc(C#N)c5)CC4(F)F)n3)ccc12 (centres unmarked) [Compound 604] | – | – | IC50 [1, 3]: > 45 µM; IC50 [2, 4]: 6.12 µM
14 | COC(=O)N1CCN(c2noc(-c3ccc4cnn(C5CNC5)c4c3)n2)CC1 [Compound 946] | > 45 µM | 4.11 µM | –
15 | Cc1nn(C)c2cc(-c3nc(C4CCN(C(=O)C5CC5)CC4)no3)ccc12 [Compound 920] | 11.7 µM | 0.1 µM | –
16 | CC(C)(C)OC(=O)N1CCC(c2noc(-c3cccc(C4CCOC4)n3)n2)CC1 (centres unmarked) [Compound 1189] | > 45 µM | 7.72 µM | –
17 | CC(C)(C)OC(=O)N1CCC(c2nc(-c3ccc4cnn([C@H]5C[C@](C)(O)C5)c4c3)no2)CC1 [Compound 821] | > 45 µM | 5.06 µM | –
18 | O=C(CC1CC1)N1CCCN(c2noc(-c3ccc4cnn(C5COC5)c4c3)n2)CC1 [Compound 965] | > 45 µM | 0.01 µM | –
19 | CC(C)(C)OC(=O)N1CCC(c2nc(-c3ccc4cnn(C(C)(C)CO)c4c3)no2)CC1 [Compound 736] | – | – | IC50 [1, 5]: 32.6 µM; IC50 [2, 6]: 0.26 µM
20 | CC(C)(C)OC(=O)N1CCC(c2nc(-c3cccc(C4CCOC4)c3)no2)CC1 (centres unmarked) [Compound 658] | – | – | IC50 [1, 5]: > 45 µM; IC50 [2, 6]: 0.089 µM
21 | CC(C)n1ncc2ccc(-c3noc(C4(F)CCN(C(=O)CC5(C)CC5)CC4)n3)cc21 [Compound 623] | – | – | IC50 [1, 5]: > 45 µM; IC50 [2, 6]: 0.854 µM
22 | COC(=O)N1CCN(c2noc(-c3ccnc(NC4COC4)c3)n2)CC1 [Compound 947] | > 45 µM | > 45 µM | –
23 | COC1(c2nc(-c3ccc4cnn(C(C)C)c4c3)no2)CCN(C(=O)OC(C)(C)C)CC1 [Compound 836] | > 45 µM | 1.44 µM | –
24 | CC(C)(C)OC(=O)N1C[C@@H]2[C@H](C1)[C@H]2NC(=O)c1ccc2cnn(C3COC3)c2c1 [Compound 814] | > 45 µM | > 45 µM | –
25 | CC(C)(C)OC(=O)N1CCC(c2noc(-c3cccc(N4CCOCC4)c3F)n2)CC1 [Compound 1154] | > 45 µM | 0.0157 µM | –
26 | CC(C)(C)OC(=O)N1CCC(c2noc(-c3ccc4cnc(C5COC5)n4c3)n2)CC1 [Compound 909] | > 45 µM | 2.85 µM | –
27 | CC(C)(C)OC(=O)N1CCC(c2noc(-c3ccc4cnn(C5COC5)c4c3)n2)CC1 [Compound 750] | 3.25 µM | 0.01 µM | –
28 | CC(C)(C)OC(=O)N1CCC(c2nc(-c3cccc(C(=O)C4COC4)c3)no2)CC1 [Compound 796] | > 45 µM | 1.59 µM | –

Row | SMILES | IC50 ([1]; humanized yeast strain, 40 h) | IC50 ([2]; humanized yeast strain, 40 h) | other results
29 | O=C(C1CCC1)N1CCN(c2nnc(-c3ccc4cnn(C5COC5)c4c3)o2)CC1 [Compound 996] | > 45 µM | 5.04 µM | –
30 | CC(C)n1ncc2ccc(-c3noc(C4CCN(C(=O)OC(C)(C)C)C=C4F)n3)cc21 (centres unmarked) [Compound 660] | – | – | IC50 [1, 5]: > 45 µM; IC50 [2, 6]: 14.6 µM
31 | O=C(c1ccccc1Cl)N1CCC(c2noc(-c3ccc4cnn(C5COC5)c4c3)n2)CC1 [Compound 697] | – | – | IC50 [1, 5]: > 45 µM; IC50 [2, 6]: 0.059 µM
32 | Cc1ncc2n1CCN(c1noc(-c3ccc4cnn(C5COC5)c4c3)n1)C2 [Compound 949] | > 45 µM | > 45 µM | –
33 | CC(C)n1ncc2ccc(-c3noc(C4CCN(C(=O)CNC(=O)c5ccccc5)CC4(F)F)n3)cc21 (centres unmarked) [Compound 519] | – | – | IC50 [1, 3]: > 45 µM; IC50 [2, 4]: > 45 µM
34 | O=C(CC1CC1)N1CCN(c2nc(-c3ccc4cnn(C5COC5)c4c3)no2)CC1 [Compound 659] | – | – | IC50 [1, 5]: > 45 µM; IC50 [2, 6]: 4.2 µM
35 | Cc1nn(C)c2cc(-c3noc(C4CCN(C(=O)CNC(=O)c5ccc(Cl)cn5)CC4(F)F)n3)ccc12 (centres unmarked) [Compound 553] | – | – | IC50 [1, 3]: 5.71 µM; IC50 [2, 4]: 0.885 µM
36 | CC(C)(C)OC(=O)N1C[C@@H]2[C@H](C1)[C@H]2C(=O)NCc1ccc(C#N)cc1 [Compound 770] | > 45 µM | > 45 µM | –
37 | CCC(=O)N1CCN(c2noc(-c3ccc4cnn(C5COC5)c4c3)n2)CC1 [Compound 841] | > 45 µM | 0.209 µM | –
38 | CC1(OC(=O)N2CCC(c3noc(-c4ccnc(NC5COC5)c4)n3)CC2)CC1 [Compound 1151] | > 45 µM | 1.09 µM | –
39 | CC(C)(C(=O)N1CCC(c2noc(-c3ccnc(C4CCOC4)c3)n2)CC1)C(F)(F)F (centres unmarked) [Compound 1175] | > 45 µM | 0.21 µM | –
40 | CC(C)(C)CC(=O)N1CCC(c2nc(-c3ccc4cn(C(=O)C5CC5)nc4c3)no2)CC1 [Compound 674] | – | – | IC50 [1, 5]: > 45 µM; IC50 [2, 6]: > 45 µM
41 | O=C(CC1CC1)N1CCC(c2noc(-c3ccc4cnn(C5COC5)c4c3)n2)CC1 [Compound 894] | > 45 µM | 0.07 µM | –
42 | COC(=O)N1CCC(F)(c2noc(-c3ccc4cnn(C5COC5)c4c3)n2)CC1 [Compound 892] | > 45 µM | 0.01 µM | –
43 | CC(C)(C)OC(=O)N1CC(n2ncc3ccc(-c4nc(N5CCn6c(Cl)cnc6C5)no4)cc32)C1 [Compound 925] | > 45 µM | > 45 µM | –
44 | CC(C)(C)OC(=O)N1CCC(c2noc(-c3ccc4oc(=O)[nH]c4c3)n2)CC1 [Compound 1009] | > 45 µM | 9.51 µM | –
45 | COC(=O)N1CCC(c2noc(-c3cc(C#N)c4cnn(C5COC5)c4c3)n2)CC1 [Compound 1085] | > 45 µM | 0.532 µM | –
46 | CC(C)(C)CC(=O)N1CCN(c2nc(-c3ccc4cnn(C5COC5)c4c3)no2)CC1 [Compound 619] | – | – | IC50 [1, 5]: > 45 µM; IC50 [2, 6]: 0.291 µM
47 | CC(C)(C)OC(=O)N1CCC(c2nc(-c3ccc4cnn(C5CCCOC5)c4c3)no2)CC1 (centres unmarked) [Compound 720] | – | – | IC50 [1, 5]: > 45 µM; IC50 [2, 6]: 1.97 µM
48 | CC(C)(C)OC(=O)N1CCC(c2nc(-c3ccc4oc(=O)n(C5COC5)c4c3)no2)CC1 [Compound 649] | – | – | IC50 [1, 5]: > 45 µM; IC50 [2, 6]: 0.259 µM
49 | CC(C)(C)OC(=O)N[C@H]1CC[C@@H](c2nc(-c3ccc4cnn(C5COC5)c4c3)no2)CC1 [Compound 683] | – | – | IC50 [1, 5]: > 45 µM; IC50 [2, 6]: 10.1 µM
50 | CC(C)(C)OC(=O)N1CCC(c2noc(-c3cc4c(Cl)nccn4c3)n2)CC1 [Compound 882] | 6.56 µM | 1.91 µM | –
51 | COC(=O)N1CCC(c2noc(-c3ccn4cnc(C(C)C)c4c3)n2)CC1 [Compound 1045] | ≥ 45 µM | 0.935 µM | –
52 | CC(C)n1ncc2ccc(N3CC4(CCN(C(=O)CC(C)(C)C)CC4)C3)cc21 [Compound 632] | – | – | IC50 [1, 5]: > 45 µM; IC50 [2, 6]: > 45 µM
53 | CC(C)n1ncc2ccc(-c3nnc(C4CCN(C(=O)OC(C)(C)C)CC4)o3)cc21 [Compound 849] | > 45 µM | 0.644 µM | –
54 | CC1(C(=O)N2CCN(c3nc(-c4ccc5cnn(C6COC6)c5c4)no3)CC2)CCCO1 (centres unmarked) [Compound 916] | 1.96 µM | 0.01 µM | –
55 | O=C(C1CC1)N1CCN(c2noc(-c3ccnc(NC4COC4)c3)n2)CC1 [Compound 1117] | > 45 µM | > 45 µM | –

Source: patent US11873298B2, “Compounds and uses thereof” (JANSSEN PHARMACEUTICA NV, priority 2017, dated 2024)
